Entries after “also recorded” stand apart in the source; their conditions may differ.
Test system: MDA-MB231 breast cancer cells
Test: Microcapillary motility assay (MMA) with agents that alter microtubule dynamics
Format: cell-based, human
Conditions: for kymograph analysis of single cell motility: 18 hour period, FIG. 13; for concentration at which persistent motility is inhibited: microcapillaries, no chemical gradient; for effect on persistent migration behavior: different concentrations, summary of Example 11; for effect on speed of cancer cell migration through the microcapillary array: result in words
Source text: Referring now to FIGS. 7A-7B, a microcapillary motility assay (MMA) device 700 including microfluidic devices 750 were manufactured by casting polydimethyl siloxane (PDMS, Dow Corning, Midland. Mich.) on a microstructured mold. The microstructured mold was fabricated using standard photolithographic technologies. A silicon wafer was coated with a 10 μm thin layer of photoresist (SU8, Microchem, Newton, Mass.) and processed following the standard protocol as recommended by the manufacturer. A second, thicker layer of approximately 50 μm was then photopatterned on the same wafer and aligned with respect to the first layer in order to define the connections between the capillaries and the wells. The mold was placed in a Petri-dish and covered with PDMS freshly prepared according to the manufacturer's instructions. After baking for 8 hours at 65° C., the cast PDMS was removed from the mold, one microwell for each device was punched using a 2 mm puncher, and each device was cut using a 5 mm puncher. After exposure for 20 seconds to oxygen plasma in a plasma asher (March, Concord, Calif.), the devices were individually bonded on the coverslips at the bottom of 24-well plates (Mattek, Ashland, Mass.).
After bonding, and while the PDMS was still hydrophilic, 2 μL of a solution of 2 μg/mL collagen IV was added inside the center microwell of each device. The strong capillary force ensured the collagen solution filled the capillaries. Excess collagen was later washed away by adding 5 μL of phosphate buffer (PBS) in only one well of the devices. Alternatively, 2 μL of Matrigel (BD Biosciences, San Jose, Calif.) was added in one well at 4° C. and the entire plate was heated to 37° C. for 5 minutes.
Before performing each migration assay, cells growing in cell culture flasks were washed with PBS, lifted from the surface using trypsin or 10 mM calcium chelator solution in buffer (EDTA, Sigma Aldrich, St. Louis, Mo.), suspended into 10 mL of media, centrifuged, and re-suspended into media at 10^6 cells/mL. Cells were then seeded in one well of each device, by directly pipetting 3-4 μL of the cell suspension in each well. After loading the cells, 3 mL of corresponding media were added to each well of the multi-well plate, completely covering the devices.
To image the moving cells, the multi-well plate was placed on the motorized stage of a Zeiss Axiovert microscope fitted with an environmental chamber. The environment was set at 37.7° C. and 5% CO2. Cells were imaged using 10× objective and phase contrast. Three separate images from each array were acquired every 6 minutes for 24-48 hours. Because cell motility is restricted only along the capillary, in one linear dimension, the motility is easy to image and easy to quantify for extended periods of times. We have tracked cells for more than 72 hours.
To quantify the migration of individual cells, images were analyzed using the manual tracking function in the Image J software. The middle of cells was tracked through the series of frames and only cells entering the microcapillaries were tracked. At least 50 cells migrating through the capillaries were tracked for each condition. Average velocity over 12 hours was calculated from temporary velocities over each 6 minutes interval and presented as mean and standard error of the mean.
To probe into the mechanisms responsible for persistent cell migration, we exposed the cells to drugs that alter microtubule dynamics while performing the MMA described in Example 2 using the microfluidic device shown in FIG. 2.

[1] = MDA-MB231 breast cancer line, FIG. 11

| SMILES | kymograph analysis of single cell motility (nocodazole 0.05 ng/mL) | concentration at which migration of the fastest moving cells is inhibited (MDA-MB231 breast cancer line, FIG. 11, only Nocodazole) | concentration at which persistent motility is inhibited [1] | concentration that significantly altered the speed of migration for all cells in the population (all cells in the population) [µM] | effect on persistent migration behavior | concentration of significant decrease in motility (dose response) (migration through microcapillary array) [nM] | effect on speed of cancer cell migration through the microcapillary array | kymograph analysis of single cell motility (taxol 12 nM) | speed of the fastest cells under drug (Taxol between 1 and 10 μM, some cells only) [μm/hour] |
| --- | --- | --- | --- | --- | --- | --- | --- | --- | --- |
| COC(=O)Nc1nc2ccc(C(=O)c3cccs3)cc2[nH]1 [Nocodazole] | frequent changes of direction and less persistence | above 1 ng/mL | above 0.5 ng/mL | > 1 | alteration of the persistent migration behavior | < 100 | significantly decrease the speed | – | – |
| CC(=O)O[C@H]1C(=O)[C@@]2(C)[C@H]([C@H](OC(=O)c3ccccc3)[C@]3(O)C[C@H](OC(=O)[C@H](O)[C@@H](NC(=O)c4ccccc4)c4ccccc4)C(C)=C1C3(C)C)[C@]1(OC(C)=O)CO[C@@H]1C[C@@H]2O [Taxol, Paclitaxel] | – | – | above 100 ng/mL | – | does not alter the persistent migration | – | significantly decrease the speed | persistent movement along the microcapillary; also recorded: reverses direction at the end of the microcapillary | > 100 |

Reference: patent publication US8790891B2, “Microfluidic cell motility assay” (The General Hospital Corporation, priority 2009, dated 2014)
